# Measured values: patent US20240277682A1, “PHARMACEUTICAL HYDRONIDONE FORMULATIONS FOR DISEASES” (Gyre Therapeutics, Inc., priority 2021, published 2024)
# Where two headings read alike, the source gives them in different places.
# Columns and labels:
# [1] = In vitro Phase I metabolism in human liver microsomes; assay type: in vitro ADME
# Experimental: The in vitro Phase I metabolism of hydronidone was evaluated by incubating human liver microsomes with hydronidone for 60 minutes.
# [2] = In vitro Phase 2 metabolism in human liver microsomes; assay type: in vitro ADME; details: 30 minutes incubation
# [3] = molecular target: T1, human CYP 1A2 (Homo sapiens, UniProt P05177); assay: biochemical
# T1 sequence (P05177 1-516): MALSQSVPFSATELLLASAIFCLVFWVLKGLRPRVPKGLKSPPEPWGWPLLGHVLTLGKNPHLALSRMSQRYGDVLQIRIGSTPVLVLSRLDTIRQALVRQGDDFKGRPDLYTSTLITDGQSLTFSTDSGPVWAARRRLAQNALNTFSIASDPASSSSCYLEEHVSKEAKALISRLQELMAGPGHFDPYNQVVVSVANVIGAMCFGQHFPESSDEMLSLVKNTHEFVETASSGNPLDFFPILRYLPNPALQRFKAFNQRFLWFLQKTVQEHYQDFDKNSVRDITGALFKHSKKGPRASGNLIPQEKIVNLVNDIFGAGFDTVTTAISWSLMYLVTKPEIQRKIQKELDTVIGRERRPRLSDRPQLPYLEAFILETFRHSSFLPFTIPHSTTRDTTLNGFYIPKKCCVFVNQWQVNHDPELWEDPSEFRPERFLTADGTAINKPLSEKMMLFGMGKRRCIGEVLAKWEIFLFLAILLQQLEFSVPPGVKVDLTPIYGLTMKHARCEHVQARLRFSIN
# Experimental: In vitro study investigated whether Hydronidone is inhibitor for human cytochrome P450 (CYP450). The effects of different Hydronidone concentrations were determined by the fluorescence intensity of metabolic substrates of CYP1A2, 2C9, 2C19, 2 D6 and 3A4, produced under the effect of the relevant enzyme. The respective IC50 value were calculated in the event of observed inhibition with hydronidone.
# [4] = PK study of single ascending oral doses in healthy volunteers (Example 7); assay type: in vivo, human; details: for CL renal / AUC / AUC(0-t) / Cmax / Tmax: male, human; for CL renal: plasma and urine; for CL renal / AUC / AUC(0-t) / Cmax / Tmax / Cl_F_pred / HL_Lambda_z / Lambda_z / Vz_F_pred: fasted; for CL renal / AUC / AUC(0-t) / Cmax / Cl_F_pred / HL_Lambda_z / Lambda_z / Vz_F_pred / Amount_Recovered / Percent_Recovered (urinary percentage of Hydronidone): n = 12, Mean(SD); for AUC / AUC(0-t) / Cmax / Tmax: plasma; for AUC: healthy Chinese subjects, read-out: AUCINE_pred; for Tmax: n = 12, Median (Min-Max); for Amount_Recovered / Percent_Recovered (urinary percentage of Hydronidone): urine
# Experimental: This was randomized, open-label, 4-period, crossover PK study of single ascending oral doses of Hydronidone in healthy volunteers.
# Ascending single oral doses of 200 mg, 400 mg, 600 mg and 800 mg of Hydronidone were given to 12 eligible, healthy male Chinese subjects, 26-38 years of age, satisfying all inclusion and exclusion criteria, and randomly divided into four dose groups, 3 subjects per group, under fasted conditions. According to the Williams Design, the subjects in each group were treated with Hydronidone at four different doses in four periods. The PK blood samples were collected at: 0 (pre-dose), 10 min, 20 min, 30 min, 40 min, 1 hr, 1.5 hr, 2 hr, 3 hr, 4 hr, 5 hr, 6 hr, 8 hr, 10 hr, 12 hr, 16 hr, and 24 hr, and 48 hr post-dose. The subjects also provided PK urine samples at 0 (pre-dose), 5 hr, 12 hr, and 24 hr post-dose. There was additional 24 hr washout period after the end of collection of PK samples, a total of 48 hrs between the first and the next dose level administration. Blood and urine samples were analysed for determination of plasma and urine concentrations of Hydronidone and its metabolites (M3).
# [5] = Crossover study of food effect on safety, tolerability and PK of a single oral dose (Example 8); assay type: in vivo, human
# Experimental: This was a randomized, open-label, 2-period, crossover PK study of effects of food on safety, tolerability, and PK of single oral doses of Hydronidone in healthy Chinese subjects. The PK parameters of the M3 and M4 metabolites of Hydronidone, in presence or absence of food were also determined.
# Twelve healthy Chinese subjects were enrolled, dosed and in this inpatient study. They were randomly assigned in two groups/periods to receive a single oral 600 mg (3×200 mg) dose of Hydronidone either under fasted, or fed (high fat) conditions. Within each treatment period, PK blood samples were collected at: 0 (pre-dose), 10 min, 20 min, 30 min, 40 min, 1 hr, 1.5 hr, 2 hr, 3 hr, 4 hr, 5 hr, 6 hr, 8 hr, 10 hr, 12 hr, 16 hr, and 24 hr, and 48 hr post-dose. The wash-out period between the two periods in this trial was 48 hours.
# [6] = test system: CCl4 and western diet (WD) induced NASH; assay: (CCl4+HFD) induced NASH model in mice; assay type: in vivo
# Excerpt: The total NASH score was lower at dosage of 15 milligram per kilogram (mpk) and 50 mpk.
# [7] = single oral 600 mg dose of Hydronidone, fed vs fasted
smiles,measurement,setting,value
"Cc1ccc(=O)n(-c2ccc(O)cc2)c1 [Hydronidone, N-(4-hydroxyphenyl)-5-Methyl-2-pyridone]",formation of metabolites,[1],no formation of metabolites was observed
same,generation of the M4 metabolite,[2],detected
same,IC50,[3],> 100 µM
same,amount of intact drug excreted via urine during 48 h,"[4]; first of four values (doses 200, 400, 600, 800 mg): 200 mg",82.25 ± 40.95 mg
same,amount of intact drug excreted via urine during 48 h,[4]; fourth of four values: 800 mg,234.72 ± 210.50 mg
same,CL renal,[4]; single oral dose 200 mg,14.7 mL/min
same,CL renal,[4]; single oral dose 400 mg,11.1 mL/min
same,CL renal,[4]; single oral dose 600 mg,9.83 mL/min
same,CL renal,[4]; single oral dose 800 mg,8.7 mL/min
same,AUC,[4]; single oral dose 200 mg,1380 ng·h/mL
same,AUC(0-t),[4]; single oral dose 200 mg,1360 ng·h/mL
same,Cmax,[4]; single oral dose 200 mg,715 ng/mL
same,Tmax,[4]; single oral dose 200 mg,19.8 min
same,AUC,[4]; single oral dose 400 mg,2800 ng·h/mL
same,AUC(0-t),[4]; single oral dose 400 mg,2780 ng·h/mL
same,Cmax,[4]; single oral dose 400 mg,1400 ng/mL
same,Tmax,[4]; single oral dose 400 mg,19.8 min
same,AUC,[4]; single oral dose 600 mg,5010 ng·h/mL
same,AUC(0-t),[4]; single oral dose 600 mg,4920 ng·h/mL
same,Cmax,[4]; single oral dose 600 mg,2500 ng/mL
same,Tmax,[4]; single oral dose 600 mg,40.2 min
same,AUC,[4]; single oral dose 800 mg,6310 ng·h/mL
same,AUC(0-t),[4]; single oral dose 800 mg,6290 ng·h/mL
same,Cmax,[4]; single oral dose 800 mg,2960 ng/mL
same,Tmax,[4]; single oral dose 800 mg,40.2 min
same,amount of intact drug excreted via urine during 48 h,[4]; second of four values: 400 mg,183.75 ± 142.14 mg
same,Cl_F_pred,[4]; single oral dose 200 mg,154(39.65) L/hr
same,HL_Lambda_z,[4]; single oral dose 200 mg,6.9(2.06) hr
same,Lambda_z,[4]; single oral dose 200 mg,0.1093(0.03) l/hr
same,Vz_F_pred,[4]; single oral dose 200 mg,1540(644.41) L
same,Cl_F_pred,[4]; single oral dose 400 mg,154(44.83) L/hr
same,HL_Lambda_z,[4]; single oral dose 400 mg,5.26(1.58) hr
same,Lambda_z,[4]; single oral dose 400 mg,0.1434(0.04) l/hr
same,Vz_F_pred,[4]; single oral dose 400 mg,1180(530.69) L
same,Cl_F_pred,[4]; single oral dose 600 mg,129(35.67) L/hr
same,HL_Lambda_z,[4]; single oral dose 600 mg,6.46(2.07) hr
same,Lambda_z,[4]; single oral dose 600 mg,0.1141(0.02) l/hr
same,Vz_F_pred,[4]; single oral dose 600 mg,1180(407.19) L
same,Cl_F_pred,[4]; single oral dose 800 mg,134(35.93) L/hr
same,HL_Lambda_z,[4]; single oral dose 800 mg,5.54(0.86) hr
same,Lambda_z,[4]; single oral dose 800 mg,0.1278(0.02) l/hr
same,Vz_F_pred,[4]; single oral dose 800 mg,1080(336.89) L
same,safety and tolerability,"[4]; single oral doses of 200, 400, 600, 800 mg, Chinese healthy subjects",safe and well tolerated with no adverse events nor SAEs reported
same,amount of intact drug excreted via urine during 48 h,[4]; third of four values: 600 mg,218.93 ± 182.73 mg
same,Amount_Recovered,[4]; single oral dose 200 mg,1.27(1.34) L*mg/L
same,Percent_Recovered (urinary percentage of Hydronidone),[4]; single oral dose 200 mg,0.634±0.57%
same,Percent_Recovered (urinary percentage of Hydronidone),"[4]; single oral dose 200 mg, listed as hydronidone",0.634(0.57) %
same,Amount_Recovered,[4]; single oral dose 400 mg,1.92(0.87) L*mg/L
same,Percent_Recovered (urinary percentage of Hydronidone),[4]; single oral dose 400 mg,0.479±0.22%
same,Percent_Recovered (urinary percentage of Hydronidone),"[4]; single oral dose 400 mg, listed as hydronidone",0.479(0.22) %
same,Amount_Recovered,[4]; single oral dose 600 mg,2.86(1.19) L*mg/L
same,Percent_Recovered (urinary percentage of Hydronidone),[4]; single oral dose 600 mg,0.476±0.2%
same,Percent_Recovered (urinary percentage of Hydronidone),"[4]; single oral dose 600 mg, listed as hydronidone",0.476(0.2) %
same,Amount_Recovered,[4]; single oral dose 800 mg,3.22(2.03) L*mg/L
same,Percent_Recovered (urinary percentage of Hydronidone),[4]; single oral dose 800 mg,0.403±0.25%
same,Percent_Recovered (urinary percentage of Hydronidone),"[4]; single oral dose 800 mg, listed as hydronidone",0.403(0.25) %
same,effect of food (high-fat meal) on Cmax,[5]; [7],decreasing their Cmax values
same,effect of food (high-fat meal) on rate of absorption,[5]; [7],delayed the rate of absorption
same,safety and tolerability,"[5]; single oral 600 mg dose, fed or fasted","safe and well tolerated, without SAEs or AEs reported"
same,total NASH score,[6]; 15 milligram per kilogram (mpk),lower
same,fibrosis and cell ballooning (H&E staining),[6]; 15 mpk,significantly inhibited
same,fibrosis and cell ballooning (H&E staining),[6]; 50 mpk,significantly inhibited
same,total NASH score,[6]; 50 mpk,lower
same,potency compared with pirfenidone,[6]; NASH model in mice,more potent than pirfenidone
same,effect on CCl4 and western diet (WD) induced NASH (H&E staining),[6]; mice,protective effect
